Results as given in patent US8076520B2, “Phosphatidyl oligoglycerols” (Max-Planck-Gesellschaft zur Forderung der Wissenschaften …, priority 1996, dated 2011).

Legend:
[1] = Behaviour of PP-G-PGn lipids in water (additional properties); type: physicochemical; conditions: for behaviour when heated in water: heated above 40° C. in water; for stability of the lamellar phases: low temperatures; for time until transition from the isotropic to the anisotropic phase is recognizable: room temperature; for behaviour when the temperature falls: temperature below 40° C.
Excerpt: As the number of glycerol molecules increases, the number of free hydroxyl groups and thus also the polarity increases. […] Whereas the transition from the isotropic to the anisotropic phase at room temperature is recognizable after a few minutes with PP-G-PG2, it takes several hours for PP-G-PG3. The differences in polarity are also evident from the different retention factors (Rf) in the thin-layer chromatogram on silica gel.

[2] = in vivo
Protocol: In an animal experiment, liposomes were used which consisted of 40 mol % cholesterol, 10 mol % phosphatidylglycerol and 50% dipalmitoyl lecithin.
Liposomes of the same composition were prepared, in which the phosphatidylglycerol was replaced by a phosphatidylglycerol G2 of the invention. […] This linear relation was observed irrespective of the size of the liposomes. The same linear reduction in serum liposome concentration was found with 50 nm liposomes and with 150 nm liposomes. The linear reduction in blood liposome concentration was also observed for different starting concentrations.

## 1.2-dipalmitoyl-sn-glycero-3-phospho-G1-G2 [PP-G-PG2]
[1]
  behaviour when heated in water: dissolve when heated above 40 °C in water and form superstructures
  stability of the lamellar phases: remain stable even at low temperatures (down to 4° C.)
  time until transition from the isotropic to the anisotropic phase is recognizable: a few minutes
  behaviour when the temperature falls: lamellar structures with differently pronounced hystereses are formed

## 1.2-dipalmitoyl-sn-glycero-3-phospho-G1-G2-G3 [PP-G-PG3]
[1]
  behaviour when heated in water: dissolve when heated above 40 °C in water and form superstructures
  stability of the lamellar phases: remain stable even at low temperatures (down to 4° C.)
  time until transition from the isotropic to the anisotropic phase is recognizable: several hours
  behaviour when the temperature falls: lamellar structures with differently pronounced hystereses are formed

## 1.2-dipalmitoyl-sn-glycero-3-phospho-G1-G2-G3-G4 [PP-G-PG4]
[1]; proportion of 5% in water
  solution formed in water: clear isotropic solution

## phosphatidylglycerol
[2]
  half-life in serum: 4 h
  persistence characteristic (decrease of liposomes in serum with time): a rapid decrease to start with, followed by a slower decrease
